Measured values from publication PMC4904373, “Azole Antifungal Sensitivity of Sterol 14α-Demethylase (CYP51) and CYP5218 from Malassezia globosa” (Scientific Reports, 2016).
Values after ≈ are worked out from the molar mass of the structure shown. Values joined by “and” are separate entries in the source; they are usually repeats but may differ in a detail not shown here. Identical values can stand only once. Like-named read-outs stand apart in the source and are kept apart here.

Tests used:
[1] = target: T1, M. globosa CYP51 (Malassezia globosa, UniProt A8Q3I7, A7V/E4L/G6A/I5L/L2A/Q3L/W8F); assay: biochemical
T1 sequence (A8Q3I7 whole entry L2A/Q3L/E4L/I5L/G6A/A7V/W8F): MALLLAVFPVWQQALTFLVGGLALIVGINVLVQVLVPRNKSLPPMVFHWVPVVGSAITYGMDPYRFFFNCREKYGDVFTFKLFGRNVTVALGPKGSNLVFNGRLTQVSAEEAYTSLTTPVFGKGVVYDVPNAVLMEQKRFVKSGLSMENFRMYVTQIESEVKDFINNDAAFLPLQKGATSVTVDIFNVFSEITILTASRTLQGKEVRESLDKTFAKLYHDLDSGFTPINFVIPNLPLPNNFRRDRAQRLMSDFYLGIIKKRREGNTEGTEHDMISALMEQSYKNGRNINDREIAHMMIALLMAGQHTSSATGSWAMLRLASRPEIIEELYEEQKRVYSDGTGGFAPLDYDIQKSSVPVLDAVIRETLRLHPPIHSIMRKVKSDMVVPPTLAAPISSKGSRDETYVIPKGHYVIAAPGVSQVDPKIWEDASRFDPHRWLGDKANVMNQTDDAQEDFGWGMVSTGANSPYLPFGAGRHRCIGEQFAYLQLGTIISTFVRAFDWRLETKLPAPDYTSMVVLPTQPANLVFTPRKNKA
Protocol: Sterol metabolites were recovered by extraction with ethyl acetate followed by derivatization with 0.1 ml N,O-bis(trimethylsilyl)trifluoroacetamide (BSTFA) : trimethylchlorosilane (TMCS) (99:1) and 0.3 ml anhydrous pyridine (2 h at 80 °C) prior to analysis by gas chromatography mass spectrometry (GC/MS)[53].

[2] = system: M. globosa ATCC MYA-4612; assay: M. globosa MIC100 determination; type: cell-based, Malassezia globosa; details: for MIC: Malassezia globosa, 168 h, read-out: MIC100
Protocol: M. globosa ATCC MYA-4612 was grown for 7 days at 30 °C in modified Dixon medium (3.6% malt extract, 2% desiccated ox-bile, 1% Tween 40, 0.6% peptone, 0.2% glycerol, 0.2% oleic acid, pH adjusted to 6 with HCl) until a culture density of 1.5 × 10^5 cells ml^−1 was obtained. Cells from 3 ml of stock culture were harvested, suspended in 1 ml of saline and used to inoculate 30 ml of fresh modified Dixon medium for use as M. globosa inoculums in MIC determinations. Stock azole concentrations of 1600, 800, 400, 200, 100, 50, 25, 12.5, 6.25, 3.125 and 0 μg ml^−1 were prepared in DMSO. These were diluted ten-fold with fresh modified Dixon media and 20 μl of the diluted azole solutions were then mixed with 180 μl of M. globosa inoculum in microtiter plate wells to yield final azole concentrations of 16, 8, 4, 2, 1, 0.5, 0.25, 0.125, 0.0625, 0.03125 and 0 μg ml^−1. The microtiter plates were incubated at 30 °C for 7 days and then read. Each azole MIC100 determination was performed in triplicate.

[3] = system: M. globosa; details: cited from earlier work
[4] = target: M. globosa CYP5218 (Malassezia globosa, UniProt A8QCD3, A3L/A5L/F6A/I7V/S4L/S8F); assay: biochemical; type: binding; details: for azole binding to CYP5218 (binding spectra): 2 μM CYP5218, result in words
Protocol: (§1) Reduced carbon monoxide difference spectroscopy[46][47] and absolute spectra between 700 and 300 nm were used to determine cytochrome P450 concentrations. Substrate and azole binding studies were performed[31][48] using 2.5 mM stock sterol solutions in 40% (wt/vol) (2-hydroxypropyl)-β-cyclodextrin (HPCD), 4 mg ml^−1 solutions of fatty acids in dimethylformamide (DMF), and stock 0.05, 0.1 and 0.2 mg ml^−1 solutions of azole antifungal agents in dimethylsulfoxide (DMSO). Sterols were titrated against 5 μM CYP51, fatty acids were titrated against 4 μM CYP5218 and azole antifungal agents were titrated against 2 μM CYP51 and CYP5218. The absorbance difference spectrum between 500 and 350 nm was determined after each incremental addition of ligand with saturation curves constructed from ΔApeak-trough against ligand concentration. The dissociation constants (Kd) for sterols and fatty acids were determined by non-linear regression (Levenberg-Marquardt algorithm) using the Michaelis-Menten equation. The dissociation constants of the enzyme-azole complex were determined by non-linear regression (Levenberg-Marquardt algorithm) using a rearrangement of the Morrison equation for tight ligand binding. ProFit 6.1.12 (QuantumSoft, Zurich, Switzerland) was used for curve-fitting data. All ligand-binding studies were performed at 22 ± 2 °C and in triplicate. All spectral determinations were made using a Hitachi U-3310 UV/VIS spectrophotometer (San Jose, California).

[5] = target: T1, M. globosa CYP51; assay: biochemical; type: binding
Protocol: as §1

[6] = system: M. globosa
[7] = target: C. albicans CYP51; set-up: method as in PMID 23826084; details: cited from earlier work
[8] = system: M. globosa; assay: Sterol analysis of azole-treated M. globosa; type: cell-based, Malassezia globosa; details: 4 μg ml^−1 ketaminazole
Protocol: Individual sterols were identified by reference to relative retention times, mass ions and fragmentation patterns. Sterol composition was calculated using peak areas.

[9] = target: H. sapiens CYP51; set-up: method as in PMID 23826084; details: cited from earlier work

SMILES: OC(Cn1cncn1)(Cn1cncn1)c1ccc(F)cc1F [fluconazole]
- IC50 ([1]; IC50, 0.5 μM CYP51, CYP51:AfCPR1 1:2, 50 μM lanosterol as substrate): 206 nM and 200 nM
- MIC ([2]; modified Dixon medium, 30 °C, 7 days): 64 µg/mL (≈ 209 µM)
- MIC values previously reported [3]: 4 µg/mL (≈ 13.1 µM)
- azole binding to CYP5218 (binding spectra) [4]: did not bind
- azole binding to CYP5218 (binding spectra) ([4]; listed as Fluconazole): no reproducible binding spectra
- Kd [5]: 11 ± 4 nM

SMILES: C=CC[C@@H]1/C=C(\C)C[C@H](C)C[C@H](OC)[C@H]2O[C@@](O)(C(=O)C(=O)N3CCCC[C@H]3C(=O)O[C@H](/C(C)=C/[C@@H]3CC[C@@H](O)[C@H](OC)C3)[C@H](C)[C@@H](O)CC1=O)[C@H](C)C[C@@H]2OC [FK-506]
- concentration above which cytotoxic towards M. globosa [6]: above 0.0625 μg ml^−1

SMILES: CC(=O)N1CCN(c2ccc(NCC3COC(Cn4ccnc4)(c4ccc(Cl)cc4Cl)O3)cc2)CC1 (centres unmarked) [ketaminazole]
- IC50 ([1]; 0.5 μM CYP51, CYP51:AfCPR1 1:2, 50 μM lanosterol as substrate): 321 ± 42 nM
- growth inhibition ([2]; 4 μg ml^−1): partial inhibition of growth
- MIC [2]: 8 µg/mL (≈ 15.1 µM)
- Kd [7]: 43 nM
- sterol fraction (%) 4,4-dimethylzymosterol [8]: 0.62%
- sterol fraction (%) Eburicol [8]: 14.63%
- sterol fraction (%) Episterol [8]: 0.63%
- sterol fraction (%) Ergosta-5,7-dienol [8]: 13.85%
- sterol fraction (%) Ergosta-7-enol [8]: 5.00%
- sterol fraction (%) Ergosta-8,22-dienol [8]: 5.35%
- sterol fraction (%) Ergosta-8-enol [8]: 0%
- sterol fraction (%) Ergosterol [8]: 54.64%
- sterol fraction (%) Fecosterol [8]: 0.54%
- sterol fraction (%) Obtusifoliol [8]: 3.52%
- sterol fraction (%) Cholesterol ([8]; cholesterol assimilated from growth media): 1.21%
- Kd [9]: 731 nM
- azole binding to CYP5218 (binding spectra) [4]: type II binding spectra
- Kd ([4]; azole titrated against 2 μM CYP5218): ~12000 nM and ~11700 nM
- Kd ([5]; azole titrated against 2 μM CYP51, Morrison equation): 3 ± 1 nM
